{
  "source": "paper PMC7316778",
  "about": "(Nature Communications, 2020)",
  "key": {"NIM1K": {"molecular_target": "NIM1K (Homo sapiens, UniProt Q8IY84)", "sequence (Q8IY84 whole entry)": "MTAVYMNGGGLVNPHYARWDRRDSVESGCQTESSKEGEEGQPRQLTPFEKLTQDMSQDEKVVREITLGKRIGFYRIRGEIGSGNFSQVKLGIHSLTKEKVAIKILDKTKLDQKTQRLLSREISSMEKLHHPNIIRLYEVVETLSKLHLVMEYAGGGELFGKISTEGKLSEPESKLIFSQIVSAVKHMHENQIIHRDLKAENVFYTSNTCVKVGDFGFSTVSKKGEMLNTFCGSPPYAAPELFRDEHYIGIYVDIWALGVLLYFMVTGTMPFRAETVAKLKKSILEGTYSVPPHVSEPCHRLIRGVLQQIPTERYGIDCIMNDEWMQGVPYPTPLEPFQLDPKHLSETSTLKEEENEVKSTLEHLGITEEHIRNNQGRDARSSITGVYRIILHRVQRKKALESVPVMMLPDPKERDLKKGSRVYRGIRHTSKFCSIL", "assay": "SelectScreen kinase assay"}, "PRKACA (PKA)": {"molecular_target": "PRKACA (PKA) (Homo sapiens, UniProt P17612)", "assay": "SelectScreen kinase assay"}, "CDK7/cyclin H/MNAT1": {"molecular_target": "CDK7/cyclin H/MNAT1 (Homo sapiens, UniProt P50613)", "sequence (P50613 whole entry)": "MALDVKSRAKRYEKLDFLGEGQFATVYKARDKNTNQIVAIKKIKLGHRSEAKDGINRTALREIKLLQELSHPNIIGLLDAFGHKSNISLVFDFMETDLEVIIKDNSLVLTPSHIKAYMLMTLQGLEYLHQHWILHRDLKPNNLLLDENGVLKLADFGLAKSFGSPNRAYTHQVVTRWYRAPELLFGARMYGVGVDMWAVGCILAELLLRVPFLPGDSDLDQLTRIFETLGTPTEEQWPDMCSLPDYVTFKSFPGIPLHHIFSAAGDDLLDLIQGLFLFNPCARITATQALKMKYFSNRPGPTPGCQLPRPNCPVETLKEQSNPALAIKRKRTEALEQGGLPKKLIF", "sequence (P51946 whole entry partner)": "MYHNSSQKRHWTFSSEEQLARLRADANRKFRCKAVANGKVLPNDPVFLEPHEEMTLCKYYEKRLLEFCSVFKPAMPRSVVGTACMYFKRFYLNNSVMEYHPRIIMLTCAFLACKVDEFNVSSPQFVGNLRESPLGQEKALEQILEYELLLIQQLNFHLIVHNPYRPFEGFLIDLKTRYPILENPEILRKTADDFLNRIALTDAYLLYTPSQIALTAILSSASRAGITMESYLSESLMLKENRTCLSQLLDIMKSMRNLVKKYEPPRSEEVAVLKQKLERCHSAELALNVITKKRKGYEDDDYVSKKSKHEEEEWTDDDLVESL", "sequence (P51948 whole entry partner)": "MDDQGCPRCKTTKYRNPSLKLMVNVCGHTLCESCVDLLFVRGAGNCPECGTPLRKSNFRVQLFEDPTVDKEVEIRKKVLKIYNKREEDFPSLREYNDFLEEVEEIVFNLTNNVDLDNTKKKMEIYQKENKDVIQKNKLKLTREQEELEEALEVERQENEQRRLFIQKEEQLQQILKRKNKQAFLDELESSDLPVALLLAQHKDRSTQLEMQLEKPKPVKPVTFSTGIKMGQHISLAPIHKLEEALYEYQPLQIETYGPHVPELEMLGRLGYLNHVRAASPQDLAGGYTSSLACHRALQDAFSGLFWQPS", "assay": "SelectScreen kinase assay"}, "MAPK15 (ERK7)": {"molecular_target": "T1, MAPK15 (ERK7) (Homo sapiens, UniProt Q8TD08)", "T1 sequence (Q8TD08 1-544)": "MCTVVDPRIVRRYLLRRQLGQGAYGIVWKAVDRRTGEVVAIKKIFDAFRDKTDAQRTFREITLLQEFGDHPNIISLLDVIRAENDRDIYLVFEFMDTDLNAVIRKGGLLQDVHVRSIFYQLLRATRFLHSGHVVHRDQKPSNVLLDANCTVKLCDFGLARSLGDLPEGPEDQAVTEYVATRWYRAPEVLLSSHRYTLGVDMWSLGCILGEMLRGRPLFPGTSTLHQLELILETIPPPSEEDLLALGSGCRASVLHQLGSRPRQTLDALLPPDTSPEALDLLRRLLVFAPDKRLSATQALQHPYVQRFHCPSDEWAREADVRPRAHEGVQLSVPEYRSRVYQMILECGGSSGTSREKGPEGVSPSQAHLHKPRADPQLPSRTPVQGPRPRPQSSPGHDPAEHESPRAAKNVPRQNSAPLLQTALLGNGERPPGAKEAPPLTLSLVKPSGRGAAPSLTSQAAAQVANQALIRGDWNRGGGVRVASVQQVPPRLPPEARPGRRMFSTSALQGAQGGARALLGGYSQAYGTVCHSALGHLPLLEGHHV", "assay": "SelectScreen kinase assay"}, "NEK4": {"molecular_target": "NEK4 (Homo sapiens, UniProt P51957)", "sequence (P51957 whole entry)": "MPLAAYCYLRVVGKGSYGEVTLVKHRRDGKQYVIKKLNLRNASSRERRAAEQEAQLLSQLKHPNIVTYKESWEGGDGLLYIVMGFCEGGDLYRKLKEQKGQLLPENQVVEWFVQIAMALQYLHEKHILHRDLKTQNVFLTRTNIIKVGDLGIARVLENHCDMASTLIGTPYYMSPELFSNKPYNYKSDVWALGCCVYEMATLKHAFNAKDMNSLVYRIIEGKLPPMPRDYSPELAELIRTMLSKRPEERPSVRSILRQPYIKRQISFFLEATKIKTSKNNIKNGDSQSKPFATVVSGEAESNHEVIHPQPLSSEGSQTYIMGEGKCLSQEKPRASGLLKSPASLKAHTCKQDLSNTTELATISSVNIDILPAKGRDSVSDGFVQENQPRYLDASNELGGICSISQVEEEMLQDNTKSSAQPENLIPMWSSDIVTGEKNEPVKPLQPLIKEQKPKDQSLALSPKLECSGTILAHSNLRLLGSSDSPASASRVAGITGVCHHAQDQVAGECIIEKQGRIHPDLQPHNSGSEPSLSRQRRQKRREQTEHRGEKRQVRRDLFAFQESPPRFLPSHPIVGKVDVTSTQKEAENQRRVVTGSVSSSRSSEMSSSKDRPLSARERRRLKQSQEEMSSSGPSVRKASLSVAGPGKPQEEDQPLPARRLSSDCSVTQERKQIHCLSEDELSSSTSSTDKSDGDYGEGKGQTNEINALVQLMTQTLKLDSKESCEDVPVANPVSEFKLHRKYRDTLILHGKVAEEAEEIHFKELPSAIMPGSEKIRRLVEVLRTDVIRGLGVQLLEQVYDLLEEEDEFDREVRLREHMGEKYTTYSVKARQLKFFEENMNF", "assay": "SelectScreen kinase assay"}, "GSG2 (Haspin)": {"molecular_target": "GSG2 (Haspin) (Homo sapiens, UniProt Q8TF76)", "sequence (Q8TF76 whole entry)": "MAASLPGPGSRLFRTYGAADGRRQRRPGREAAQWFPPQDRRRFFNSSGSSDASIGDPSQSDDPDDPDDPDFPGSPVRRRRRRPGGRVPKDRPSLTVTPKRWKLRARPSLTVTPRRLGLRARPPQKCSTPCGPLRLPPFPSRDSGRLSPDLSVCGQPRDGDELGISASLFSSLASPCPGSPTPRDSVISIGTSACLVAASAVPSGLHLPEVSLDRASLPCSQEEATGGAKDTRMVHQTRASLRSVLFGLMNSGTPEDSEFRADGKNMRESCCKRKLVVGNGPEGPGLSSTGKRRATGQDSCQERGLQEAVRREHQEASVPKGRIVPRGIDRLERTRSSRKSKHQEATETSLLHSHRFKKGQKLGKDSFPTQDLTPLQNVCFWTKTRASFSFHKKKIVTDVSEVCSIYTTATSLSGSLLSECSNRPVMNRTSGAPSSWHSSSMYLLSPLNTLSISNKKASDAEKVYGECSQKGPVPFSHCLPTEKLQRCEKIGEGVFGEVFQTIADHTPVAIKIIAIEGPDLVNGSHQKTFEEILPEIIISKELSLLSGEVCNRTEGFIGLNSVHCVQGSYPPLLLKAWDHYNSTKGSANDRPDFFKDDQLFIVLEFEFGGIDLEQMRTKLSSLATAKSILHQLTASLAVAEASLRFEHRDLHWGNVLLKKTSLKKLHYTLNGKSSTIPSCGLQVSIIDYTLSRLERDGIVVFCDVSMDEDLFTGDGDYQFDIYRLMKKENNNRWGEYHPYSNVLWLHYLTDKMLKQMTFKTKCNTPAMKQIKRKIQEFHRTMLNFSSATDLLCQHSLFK", "assay": "SelectScreen kinase assay"}, "[1]": {"molecular_target": "T2, FES^S700C-SYK interaction (Homo sapiens, UniProt P07332, S700C)", "T2 construct": "Full-length human cDNA encoding FES and PAK4 was obtained from Source Bioscience; expressed in transfected cells; host or cells: U2OS (human osteosarcoma)", "assay": "Co-immunoprecipitation in co-transfected U2OS cells", "format": "cell-based", "conditions": "WEL028 200 nM, 1 h", "protocol": "U2OS cells were co-transfected with FLAG-tagged FES and V5-tagged SYK and grown for 48 h as described above, followed by incubation with vehicle or WEL028 (200 nM) for 1 h. Cells were then washed with PBS and collected by scraping in IP-buffer (20 mM Tris-HCl pH 7.5, 150 mM NaCl, 1% Triton X-100 supplemented with […] Halt™ phosphatase and protease inhibitor cocktail (Thermo Fisher)). Cells were lysed by sonication on ice (three cycles of 10′′ on, 10′′ off at 25% maximum amplitude), centrifuged (14,000g, 10 min, 4 °C). The clear lysate was diluted to 1 mg/mL in IP-buffer and subjected to immunoprecipitation using Dynabeads™ Protein G Immunoprecipitation kit (Thermo Fisher) following manufacturer’s protocol. Briefly, anti-FLAG M2 antibody (1:100, Sigma Aldrich, F3156) was incubated with beads with gentle rotation (10 min, rt), after which lysate (500 µL of 1 mg/mL) was added and incubated (1 h, 4 °C). Beads were washed three times, transferred to clean tubes and eluted by suspension in 2× Laemmli buffer (50 µL, 10 min, 70 °C). Samples (10 µL per lane) were resolved by SDS-PAGE and immunoblotted using anti-V5 or anti-FLAG antibodies. Immunoprecipitations were performed in three independent replicates."}, "MAP3K8 (COT) [2]": {"test_system": "MAP3K8 (COT)", "assay": "SelectScreen kinase assay", "conditions": "IC50 on that kinase divided by IC50 on FES^S700C"}, "MAP3K8 (COT) [3]": {"molecular_target": "MAP3K8 (COT) (Homo sapiens, UniProt P41279)", "sequence (P41279 whole entry, species assumed)": "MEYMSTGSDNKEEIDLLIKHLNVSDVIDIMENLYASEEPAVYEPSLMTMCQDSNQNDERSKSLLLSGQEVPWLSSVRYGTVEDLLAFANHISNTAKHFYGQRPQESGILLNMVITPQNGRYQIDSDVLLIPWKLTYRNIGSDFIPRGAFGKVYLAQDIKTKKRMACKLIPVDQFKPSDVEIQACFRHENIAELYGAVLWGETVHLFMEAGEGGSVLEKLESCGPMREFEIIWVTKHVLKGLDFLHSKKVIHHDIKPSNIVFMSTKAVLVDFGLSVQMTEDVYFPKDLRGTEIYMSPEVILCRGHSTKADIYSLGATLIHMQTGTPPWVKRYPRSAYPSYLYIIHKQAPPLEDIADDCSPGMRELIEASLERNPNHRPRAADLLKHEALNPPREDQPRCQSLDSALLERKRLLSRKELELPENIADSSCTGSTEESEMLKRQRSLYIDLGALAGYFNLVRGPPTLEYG", "assay": "SelectScreen kinase assay"}, "PDK1 Direct": {"molecular_target": "T3, PDK1 Direct (Homo sapiens, UniProt O15530)", "T3 sequence (O15530 1-556)": "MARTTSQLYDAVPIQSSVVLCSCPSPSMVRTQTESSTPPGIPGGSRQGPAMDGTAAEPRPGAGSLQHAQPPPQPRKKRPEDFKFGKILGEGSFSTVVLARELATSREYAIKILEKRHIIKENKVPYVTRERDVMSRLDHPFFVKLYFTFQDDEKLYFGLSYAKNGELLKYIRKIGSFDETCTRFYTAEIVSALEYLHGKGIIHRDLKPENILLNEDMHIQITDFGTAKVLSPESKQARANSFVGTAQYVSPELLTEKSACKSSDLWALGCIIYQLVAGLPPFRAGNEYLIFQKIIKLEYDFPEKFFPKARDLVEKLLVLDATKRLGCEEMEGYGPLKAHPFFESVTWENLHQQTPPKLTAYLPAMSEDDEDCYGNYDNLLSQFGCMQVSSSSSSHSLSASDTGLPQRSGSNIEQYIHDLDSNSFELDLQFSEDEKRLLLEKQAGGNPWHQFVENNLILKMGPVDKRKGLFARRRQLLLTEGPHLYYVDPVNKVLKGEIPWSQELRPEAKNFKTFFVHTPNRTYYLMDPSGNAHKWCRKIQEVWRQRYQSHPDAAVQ", "assay": "SelectScreen kinase assay"}, "PIK3C3 (hVPS34)": {"molecular_target": "PIK3C3 (hVPS34) (Homo sapiens, UniProt Q8NEB9)", "sequence (Q8NEB9 whole entry)": "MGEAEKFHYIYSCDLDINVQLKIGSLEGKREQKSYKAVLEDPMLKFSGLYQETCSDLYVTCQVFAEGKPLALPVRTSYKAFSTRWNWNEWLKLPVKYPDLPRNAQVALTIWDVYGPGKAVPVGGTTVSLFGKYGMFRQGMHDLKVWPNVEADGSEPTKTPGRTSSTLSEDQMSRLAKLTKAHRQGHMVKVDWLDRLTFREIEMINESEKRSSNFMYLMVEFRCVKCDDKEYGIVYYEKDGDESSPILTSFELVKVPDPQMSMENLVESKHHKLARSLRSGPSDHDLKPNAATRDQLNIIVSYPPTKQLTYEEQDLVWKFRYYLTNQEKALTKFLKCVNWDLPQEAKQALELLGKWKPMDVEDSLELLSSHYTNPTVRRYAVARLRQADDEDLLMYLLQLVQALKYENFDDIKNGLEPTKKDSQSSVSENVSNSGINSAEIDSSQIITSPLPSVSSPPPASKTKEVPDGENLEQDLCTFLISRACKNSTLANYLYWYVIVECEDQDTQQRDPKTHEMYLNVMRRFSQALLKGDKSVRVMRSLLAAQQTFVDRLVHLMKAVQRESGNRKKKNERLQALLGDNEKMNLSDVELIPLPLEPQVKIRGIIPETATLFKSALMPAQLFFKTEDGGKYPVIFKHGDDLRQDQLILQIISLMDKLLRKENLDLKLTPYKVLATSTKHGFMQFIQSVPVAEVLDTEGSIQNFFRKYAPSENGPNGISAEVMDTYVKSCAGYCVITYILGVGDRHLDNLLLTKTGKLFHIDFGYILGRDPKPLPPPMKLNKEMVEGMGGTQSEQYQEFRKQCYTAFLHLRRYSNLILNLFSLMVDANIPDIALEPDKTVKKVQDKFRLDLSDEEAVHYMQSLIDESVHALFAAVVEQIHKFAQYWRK", "assay": "SelectScreen kinase assay"}, "MAP3K3 (MEKK3)": {"molecular_target": "MAP3K3 (MEKK3) (Homo sapiens, UniProt Q99759)", "assay": "SelectScreen kinase assay"}, "[4]": {"conditions": "1 h, 1 μM WEL028, 1 h preincubation"}},
  "note": "Several values for one entry are separate records, joined by “and”; a condition that tells them apart may be missing. Equal values may be shown once. Read-outs that look alike come from different tables or passages of the source.",
  "data": [
    {"smiles": "C#CCOc1ccc(Nc2ncc(Cl)c(Nc3ccccc3NC(=O)C=C)n2)c(OC)c1", "note": "[Compound 6]", "values": [
      {"measurement": "inhibition at 1 µM", "setting": "NIM1K; [4]", "value": 2, "unit": "%"},
      {"measurement": "inhibition at 1 µM", "setting": "NIM1K; read-out: Inhibition at 1 µM (%), NIM1K, 1 µM, ZLYTE, ATP Km app", "value": 3, "unit": "%"},
      {"measurement": "inhibition at 1 µM", "setting": "PRKACA (PKA); [4]", "value": 2, "unit": "%"},
      {"measurement": "Inhibition at 1 µM (%)", "setting": "PRKACA (PKA); PRKACA (PKA), 1 µM, ZLYTE, ATP Km app, listed as WEL028, 1 µM", "value": "4% and -1%"},
      {"measurement": "inhibition at 1 µM", "setting": "CDK7/cyclin H/MNAT1; [4]", "value": 6, "unit": "%"},
      {"measurement": "Inhibition at 1 µM (%)", "setting": "CDK7/cyclin H/MNAT1; CDK7/cyclin H/MNAT1, 1 µM, Adapta, ATP Km app, listed as WEL028, 1 µM", "value": "2% and 11%"},
      {"measurement": "inhibition at 1 µM", "setting": "MAPK15 (ERK7); [4]", "value": 5, "unit": "%"},
      {"measurement": "Inhibition at 1 µM (%)", "setting": "MAPK15 (ERK7); MAPK15 (ERK7), 1 µM, LanthaScreen Binding, listed as WEL028, 1 µM", "value": 4, "unit": "%"},
      {"measurement": "inhibition at 1 µM", "setting": "MAPK15 (ERK7); read-out: Inhibition at 1 µM (%), MAPK15 (ERK7), 1 µM, LanthaScreen Binding", "value": 7, "unit": "%"},
      {"measurement": "inhibition at 1 µM", "setting": "NEK4; [4]", "value": 4, "unit": "%"},
      {"measurement": "Inhibition at 1 µM (%)", "setting": "NEK4; NEK4, 1 µM, ZLYTE, ATP Km app, listed as WEL028, 1 µM", "value": 5, "unit": "%"},
      {"measurement": "inhibition at 1 µM", "setting": "NEK4; read-out: Inhibition at 1 µM (%), NEK4, 1 µM, ZLYTE, ATP Km app", "value": 4, "unit": "%"},
      {"measurement": "inhibition at 1 µM", "setting": "GSG2 (Haspin); [4]", "value": 6, "unit": "%"},
      {"measurement": "Inhibition at 1 µM (%)", "setting": "GSG2 (Haspin); GSG2 (Haspin), 1 µM, Adapta, ATP Km app", "value": 20, "unit": "%"},
      {"measurement": "Co-precipitation of SYK with FES", "setting": "[1]", "value": "inhibited the co-precipitation of SYK with FES"},
      {"measurement": "Apparent fold selectivity", "setting": "MAP3K8 (COT) [2]", "value": 57, "unit": "fold"},
      {"measurement": "IC50", "setting": "MAP3K8 (COT) [3]", "value": 251, "unit": "nM"},
      {"measurement": "inhibition at 1 µM", "setting": "MAP3K8 (COT) [3]; [4]", "value": 77, "unit": "%"},
      {"measurement": "inhibition at 10 µM", "setting": "MAP3K8 (COT) [3]; 1 h, log[inhibitor] (M) -5.00, ZLYTE, ATP 100", "value": 100, "unit": "%"},
      {"measurement": "inhibition at 3.311 µM", "setting": "MAP3K8 (COT) [3]; 1 h, log[inhibitor] (M) -5.48, ZLYTE, ATP 100", "value": 101, "unit": "%"},
      {"measurement": "inhibition at 1.122 µM", "setting": "MAP3K8 (COT) [3]; 1 h, log[inhibitor] (M) -5.95, ZLYTE, ATP 100", "value": 95, "unit": "%"},
      {"measurement": "inhibition at 0.3715 µM", "setting": "MAP3K8 (COT) [3]; 1 h, log[inhibitor] (M) -6.43, ZLYTE, ATP 100", "value": 67, "unit": "%"},
      {"measurement": "inhibition at 0.123 µM", "setting": "MAP3K8 (COT) [3]; 1 h, log[inhibitor] (M) -6.91, ZLYTE, ATP 100", "value": 46, "unit": "%"},
      {"measurement": "inhibition at 0.04074 µM", "setting": "MAP3K8 (COT) [3]; 1 h, log[inhibitor] (M) -7.39, ZLYTE, ATP 100", "value": 34, "unit": "%"},
      {"measurement": "inhibition at 0.0138 µM", "setting": "MAP3K8 (COT) [3]; 1 h, log[inhibitor] (M) -7.86, ZLYTE, ATP 100", "value": 24, "unit": "%"},
      {"measurement": "inhibition at 0.001514 µM", "setting": "MAP3K8 (COT) [3]; 1 h, log[inhibitor] (M) -8.82, ZLYTE, ATP 100", "value": 15, "unit": "%"},
      {"measurement": "inhibition at 0.0004898 µM", "setting": "MAP3K8 (COT) [3]; 1 h, log[inhibitor] (M) -9.31, ZLYTE, ATP 100", "value": 17, "unit": "%"},
      {"measurement": "inhibition at 0.004571 µM", "setting": "MAP3K8 (COT) [3]; 1 h, log[inhibitor] (M) -[…], ZLYTE, ATP 100", "value": 17, "unit": "%"},
      {"measurement": "Inhibition at 1 µM (%)", "setting": "MAP3K8 (COT) [3]; MAP3K8 (COT), 1 µM, ZLYTE, ATP 100, listed as WEL028, 1 µM", "value": 82, "unit": "%"},
      {"measurement": "inhibition at 1 µM", "setting": "MAP3K8 (COT) [3]; read-out: Inhibition at 1 µM (%), MAP3K8 (COT), 1 µM, ZLYTE, ATP 100", "value": 73, "unit": "%"},
      {"measurement": "inhibition at 1 µM", "setting": "PDK1 Direct; [4]", "value": 5, "unit": "%"},
      {"measurement": "Inhibition at 1 µM (%)", "setting": "PDK1 Direct; PDK1 Direct, 1 µM, ZLYTE, ATP Km app, listed as WEL028, 1 µM", "value": 3, "unit": "%"},
      {"measurement": "inhibition at 1 µM", "setting": "PDK1 Direct; read-out: Inhibition at 1 µM (%), PDK1 Direct, 1 µM, ZLYTE, ATP Km app", "value": 6, "unit": "%"},
      {"measurement": "inhibition at 1 µM", "setting": "PIK3C3 (hVPS34); [4]", "value": 11, "unit": "%"},
      {"measurement": "Inhibition at 1 µM (%)", "setting": "PIK3C3 (hVPS34); PIK3C3 (hVPS34), 1 µM, Adapta, ATP Km app, listed as WEL028, 1 µM", "value": 12, "unit": "%"},
      {"measurement": "inhibition at 1 µM", "setting": "PIK3C3 (hVPS34); read-out: Inhibition at 1 µM (%), PIK3C3 (hVPS34), 1 µM, Adapta, ATP Km app", "value": 11, "unit": "%"},
      {"measurement": "inhibition at 1 µM", "setting": "MAP3K3 (MEKK3); [4]", "value": 7, "unit": "%"},
      {"measurement": "inhibition at 1 µM", "setting": "MAP3K3 (MEKK3); read-out: Inhibition at 1 µM (%), MAP3K3 (MEKK3), 1 µM, LanthaScreen Binding", "value": 8, "unit": "%"}
    ]}
  ]
}
